Converted amounts (≈) assume the structure as drawn.
How the values were obtained:
Format in all cases: cell-based
[1] = tested on: Staphylococcus aureus ATCC29213; test: MIC, microbroth dilution (NCCLS); conditions: rifS strain, Cation-Adjusted Mueller-Hinton Broth, 37° C., read-out: Antimicrobial activity (MIC)
[2] = tested on: Staphylococcus aureus ATCC29213 rpoB^D417Y; test: microbe, parasite or virus in culture; conditions: ATCC29213, read-out: Antimicrobial activity (MIC)
Experimental: (§1) Representative compounds were assayed for antimicrobial activity as follows: Minimum Inhibitory Concentrations (“MICs”) were determined by the microbroth dilution method as per NCCLS guidelines (National Committee for Clinical Laboratory Standards. 2000. Methods for dilution antimicrobial susceptibility tests for bacteria that grow aerobically, 5th ed. M7-A5. National Committee for Clinical Laboratory Standards, Wayne, Pa.), except that all growth incubations were conducted at 37° C. Bacterial cultures were tested in the following bacteriological media: S. aureus, S. epidermidis, and E. coli in Cation-Adjusted Mueller-Hinton Broth, S. pneumoniae in THY Broth supplemented with 1 mg/mL catalase under 5% CO2 atmosphere, S. pyogenes in THY Broth, E. faecalis in BHI Broth, H. influenzae in BHI Broth supplemented with 0.75 μL of 1 mg/mL NAD and 150 μL of 1 mg/ml hematin per 5 mL, and M. smegmatis in Middlebrook Broth plus ADC Enrichment.
(§2) S. aureus ATCC 29213 RpoB^H418Y is a rifampin-resistant strain with a mutation in RNA polymerase, the biological target of rifamycin antibiotics. […] S. aureus EN1252a gyrA^S84L grlA^S80F is a quinolone-resistant strain due to double mutations to DNA gyrase and topoisomerase IV, the two biological targets for quinolone antibiotics.

[3] = tested on: Staphylococcus aureus ATCC29213 rpoB^H418Y; test: microbe, parasite or virus in culture; conditions: ATCC29213, read-out: Antimicrobial activity (MIC)
Experimental: as §1, §2

[4] = tested on: Staphylococcus aureus EN1252a gyrA^S84L grlA^S80F; test: microbe, parasite or virus in culture; conditions: read-out: Antimicrobial activity (MIC)
Experimental: as §1, §2

[5] = tested on: Staphylococcus epidermidis ATCC12228; test: MIC, microbroth dilution (NCCLS); conditions: rifS strain, Cation-Adjusted Mueller-Hinton Broth, 37° C., read-out: Antimicrobial activity (MIC)
[6] = tested on: Streptococcus pneumoniae ATCC6303; test: MIC, microbroth dilution (NCCLS); conditions: rifS strain, THY Broth with 1 mg/mL catalase, 5% CO2, 37° C., read-out: Antimicrobial activity (MIC)
[7] = tested on: Streptococcus pyogenes ATCC19615; test: MIC, microbroth dilution (NCCLS); conditions: rifS strain, THY Broth, 37° C., read-out: Antimicrobial activity (MIC)
[8] = tested on: Enterococcus faecalis ATCC29212; test: MIC, microbroth dilution (NCCLS); conditions: rifS strain, BHI Broth, 37° C., read-out: Antimicrobial activity (MIC)
[9] = tested on: Haemophilus influenzae ATCC10211; test: MIC, microbroth dilution (NCCLS); conditions: rifS strain, BHI Broth with NAD and hematin, 37° C., read-out: Antimicrobial activity (MIC)
[10] = tested on: Escherichia coli ATCC25922; test: MIC, microbroth dilution (NCCLS); conditions: rifS strain, Cation-Adjusted Mueller-Hinton Broth, 37° C., read-out: Antimicrobial activity (MIC)
[11] = tested on: Mycobacterium smegmatis ATCC700084; test: MIC, microbroth dilution (NCCLS); conditions: Mycolicibacterium smegmatis, rifS strain, Middlebrook Broth plus ADC Enrichment, 37° C., read-out: Antimicrobial activity (MIC)

Compound	MIC [1]	MIC [2]	MIC [3]	MIC [4]	MIC [5]	MIC [6]	MIC [7]	MIC [8]	MIC [9]	MIC [10]	MIC [11]
CO[C@H]1/C=C/O[C@@]2(C)Oc3c(C)c(O)c4c(c3C2=O)C(=O)C(N2CCC(NC3CCN(c5c(F)cc6c(=O)c(C(=O)O)cn(C7CC7)c6c5Cl)C3)CC2)=C(NC(=O)/C(C)=C\C=C\[C@H](C)[C@H](O)[C@@H](C)[C@@H](O)[C@@H](C)[C@H](OC(C)=O)[C@@H]1C)C4=O (mixture of isomers) [Example 29, (R/S)-3-{4-[1-(3-Carboxy-8-chloro-1-cyclopropyl-6-fluoro-4-oxo-1,4-dihydroquinolin-7-yl)-pyrrolidin-3-ylamino]-piperidin-1-yl}rifamycin S]	0.004 to 0.5 µg/mL (≈ 0.0035 to 0.438 µM)	0.06 to 32 µg/mL (≈ 0.0525 to 28 µM)	0.06 to 16 µg/mL (≈ 0.0525 to 14 µM)	0.004 to 0.5 µg/mL (≈ 0.0035 to 0.438 µM)	0.008 to 0.063 µg/mL (≈ 0.007 to 0.0551 µM)	0.008 to 0.125 µg/mL (≈ 0.007 to 0.109 µM)	0.008 to 0.063 µg/mL (≈ 0.007 to 0.0551 µM)	2 to 32 µg/mL (≈ 1.75 to 28 µM)	0.125 to 2 µg/mL (≈ 0.109 to 1.75 µM)	0.125 to 8 µg/mL (≈ 0.109 to 7 µM)	0.5 to 64 µg/mL
COc1c(N2CCC(NC3CCN(C4=C5NC(=O)/C(C)=C\C=C\[C@H](C)[C@H](O)[C@@H](C)[C@@H](O)[C@@H](C)[C@H](OC(C)=O)[C@H](C)[C@@H](OC)/C=C/O[C@@]6(C)Oc7c(C)c(O)c(c(c7C6=O)C4=O)C5=O)CC3)C2)c(F)cc2c(=O)c(C(=O)O)cn(C3CC3)c12 (mixture of isomers) [Example 30, (R/S)-3-{4-[1-(3-Carboxy-1-cyclopropyl-6-fluoro-8-methoxy-4-oxo-1,4-dihydroquinolin-7-yl)-pyrrolidin-3-ylamino]-piperidin-1-yl}rifamycin S]	0.004 to 0.5 µg/mL (≈ 0.00351 to 0.439 µM)	0.06 to 32 µg/mL (≈ 0.0527 to 28.1 µM)	0.06 to 16 µg/mL (≈ 0.0527 to 14.1 µM)	0.004 to 0.5 µg/mL (≈ 0.00351 to 0.439 µM)	0.008 to 0.063 µg/mL (≈ 0.00703 to 0.0553 µM)	0.008 to 0.125 µg/mL (≈ 0.00703 to 0.11 µM)	0.008 to 0.063 µg/mL (≈ 0.00703 to 0.0553 µM)	2 to 32 µg/mL (≈ 1.76 to 28.1 µM)	0.125 to 2 µg/mL (≈ 0.11 to 1.76 µM)	0.125 to 8 µg/mL (≈ 0.11 to 7.03 µM)	0.5 to 64 µg/mL
COc1c(N2CCCC(NC3CCN(C4=C5NC(=O)/C(C)=C\C=C\[C@H](C)[C@H](O)[C@@H](C)[C@@H](O)[C@@H](C)[C@H](OC(C)=O)[C@H](C)[C@@H](OC)/C=C/O[C@@]6(C)Oc7c(C)c(O)c(c(c7C6=O)C4=O)C5=O)CC3)C2)c(F)cc2c(=O)c(C(=O)O)cn(C3CC3)c12 (mixture of isomers) [Example 32, (R/S)-3-{4-[1-(3-Carboxy-1-cyclopropyl-6-fluoro-8-methoxy-4-oxo-1,4-dihydroquinolin-7-yl)-piperidin-3-ylamino]-piperidin-1-yl}rifamycin S]	0.004 to 0.5 µg/mL (≈ 0.00347 to 0.434 µM)	0.06 to 32 µg/mL (≈ 0.0521 to 27.8 µM)	0.06 to 16 µg/mL (≈ 0.0521 to 13.9 µM)	0.004 to 0.5 µg/mL (≈ 0.00347 to 0.434 µM)	0.008 to 0.063 µg/mL (≈ 0.00694 to 0.0547 µM)	0.008 to 0.125 µg/mL (≈ 0.00694 to 0.108 µM)	0.008 to 0.063 µg/mL (≈ 0.00694 to 0.0547 µM)	2 to 32 µg/mL (≈ 1.74 to 27.8 µM)	0.125 to 2 µg/mL (≈ 0.108 to 1.74 µM)	0.125 to 8 µg/mL (≈ 0.108 to 6.94 µM)	0.5 to 64 µg/mL
COc1c(N2CCC(N(C)C3CCN(C4=C5NC(=O)/C(C)=C\C=C\[C@H](C)[C@H](O)[C@@H](C)[C@@H](O)[C@@H](C)[C@H](OC(C)=O)[C@H](C)[C@@H](OC)/C=C/O[C@@]6(C)Oc7c(C)c(O)c(c(c7C6=O)C4=O)C5=O)CC3)C2)c(F)cc2c(=O)c(C(=O)O)cn(C3CC3)c12 (mixture of isomers) [Example 34]	0.004 to 0.5 µg/mL (≈ 0.00347 to 0.434 µM)	0.06 to 32 µg/mL (≈ 0.0521 to 27.8 µM)	0.06 to 16 µg/mL (≈ 0.0521 to 13.9 µM)	0.004 to 0.5 µg/mL (≈ 0.00347 to 0.434 µM)	0.008 to 0.063 µg/mL (≈ 0.00694 to 0.0547 µM)	0.008 to 0.125 µg/mL (≈ 0.00694 to 0.108 µM)	0.008 to 0.063 µg/mL (≈ 0.00694 to 0.0547 µM)	2 to 32 µg/mL (≈ 1.74 to 27.8 µM)	0.125 to 2 µg/mL (≈ 0.108 to 1.74 µM)	0.125 to 8 µg/mL (≈ 0.108 to 6.94 µM)	0.5 to 64 µg/mL
CO[C@H]1/C=C/O[C@@]2(C)Oc3c(C)c(O)c4c(c3C2=O)C(=O)C(N2CCC(NCC3CCN(c5c(F)cc6c(=O)c(C(=O)O)cn(C7CC7)c6c5Cl)C3)CC2)=C(NC(=O)/C(C)=C\C=C\[C@H](C)[C@H](O)[C@@H](C)[C@@H](O)[C@@H](C)[C@H](OC(C)=O)[C@@H]1C)C4=O (mixture of isomers) [Example 36, (R/S)-3-{4-[1-(3-Carboxy-8-chloro-1-cyclopropyl-6-fluoro-4-oxo-1,4-dihydroquinolin-7-yl)-(pyrrolidin-3-ylmethyl)-amino]-piperidin-1-yl}rifamycin S]	0.004 to 0.5 µg/mL (≈ 0.00346 to 0.432 µM)	0.06 to 32 µg/mL (≈ 0.0519 to 27.7 µM)	0.06 to 16 µg/mL (≈ 0.0519 to 13.8 µM)	0.004 to 0.5 µg/mL (≈ 0.00346 to 0.432 µM)	0.008 to 0.063 µg/mL (≈ 0.00692 to 0.0545 µM)	0.008 to 0.125 µg/mL (≈ 0.00692 to 0.108 µM)	0.008 to 0.063 µg/mL (≈ 0.00692 to 0.0545 µM)	2 to 32 µg/mL (≈ 1.73 to 27.7 µM)	0.125 to 2 µg/mL (≈ 0.108 to 1.73 µM)	0.125 to 8 µg/mL (≈ 0.108 to 6.92 µM)	0.5 to 64 µg/mL
CO[C@H]1/C=C/O[C@@]2(C)Oc3c(C)c(O)c4c(c3C2=O)C(=O)C(N2CCC(NCC3CCN(c5nc6c(cc5F)c(=O)c(C(=O)O)cn6-c5ccc(F)cc5F)C3)CC2)=C(NC(=O)/C(C)=C\C=C\[C@H](C)[C@H](O)[C@@H](C)[C@@H](O)[C@@H](C)[C@H](OC(C)=O)[C@@H]1C)C4=O (mixture of isomers) [Example 37]	0.004 to 0.5 µg/mL (≈ 0.00335 to 0.418 µM)	0.06 to 32 µg/mL (≈ 0.0502 to 26.8 µM)	0.06 to 16 µg/mL (≈ 0.0502 to 13.4 µM)	0.004 to 0.5 µg/mL (≈ 0.00335 to 0.418 µM)	0.008 to 0.063 µg/mL (≈ 0.00669 to 0.0527 µM)	0.008 to 0.125 µg/mL (≈ 0.00669 to 0.105 µM)	0.008 to 0.063 µg/mL (≈ 0.00669 to 0.0527 µM)	2 to 32 µg/mL (≈ 1.67 to 26.8 µM)	0.125 to 2 µg/mL (≈ 0.105 to 1.67 µM)	0.125 to 8 µg/mL (≈ 0.105 to 6.69 µM)	0.5 to 64 µg/mL

— patent publication US7247634B2, “Rifamycin derivatives effective against drug-resistant microbes” (Cumbre Pharmaceuticals Inc., priority 2004, dated 2007)
